The text below walks through data of ChEMBL document CHEMBL3137667, “[Drug-induced liver injury; fourteenth updated edition of the bibliographic database of liver injuries and related drugs]” (Gastroenterol Clin Biol, 2004).

Data set [1] can be described thus: Highest frequency of moderate liver toxicity observed during clinical trials, expressed as a percentage. [column '% BIOL' in source]. To be noted: human.
Data set [2] in a line: Highest frequency of acute liver toxicity observed during clinical trials, expressed as a percentage. [column '% AIGUE' in source]. The settings on record: human.
Data set [3] in a line: Presence of at least one case with successful reintroduction. [column 'REINT' in source]. The settings on record: human.
Data set [4] in a line: Comments (NB not yet translated). [column 'COMMENTAIRES' in source]. The settings on record: human.
A short description of data set [5]: Times to onset, minimal and maximal, observed in the indexed observations. [column 'DELAI' in source]. The settings on record: human.
Data set [6] in a line: Proposed mechanism(s) of liver damage. [column 'MEC' in source]. The settings on record: human.
For data set [7] the following is noted: human, serum.
The conditions of data set [8]: human, serum. The source holds these as a separate data set.
The conditions of data set [9]: human.
For data set [10] the following is noted: human. This is another data set of the same source.
For data set [11] the following is noted: human. The source holds these as a separate data set.
The conditions of data set [12]: human, serum, 4383 h.
For data set [13] the following is noted: human. This is another data set of the same source.
The conditions of data set [14]: human. The source holds these as a separate data set.
The conditions of data set [15]: human. This is another data set of the same source.
The conditions of data set [16]: human. This is another data set of the same source.
The conditions of data set [17]: human. The source holds these as a separate data set.
For data set [18] the following is noted: human. The source holds these as a separate data set.
For data set [19] the following is noted: human. This is another data set of the same source.
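Wherever Hepatotoxicity (association with vascular disease) is given: count of indexed literature references reporting vascular liver injury in humans, e.g. peliosis hepatitis, hepatic veno-occlusive disease or Budd-Chiari syndrome.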
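Wherever Hepatotoxicity (benign tumour) is given: value is a count of indexed literature references citing a benign tumour confirmed by histopathology.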
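Wherever Hepatotoxicity (choleostasis) is given: human cholestatic liver injury, shown by histopathology or by peak ALT or AST elevation over alkaline phosphatase ratio below 2, value counts indexed literature reports.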
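Wherever Hepatotoxicity (chronic liver disease) is given: chronic liver injury confirmed by histopathology or persistently raised serum aminotransferase activity beyond 6 months, value given as the count of indexed literature references.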
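Wherever Hepatotoxicity (cirrhosis) is given: value is a count of indexed literature references reporting cirrhosis confirmed by histopathology.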
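Wherever Hepatotoxicity (cytolytic) is given: human cytolytic liver injury, shown by histopathology or by a ratio above 5 of peak ALT or AST elevation to alkaline phosphatase elevation, value counts indexed references.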
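Wherever Hepatotoxicity (granulomatous hepatitis) is given: value is a count of indexed literature references reporting granulomatous liver disease confirmed by histopathology.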
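Wherever Hepatotoxicity (malignant tumour) is given: malignant tumour confirmed by histopathology, value gives the count of indexed literature references reporting it.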
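Wherever Hepatotoxicity (severe hepatitis) is given: human clinical data: severe hepatitis, meaning potentially life-threatening liver failure or clinically observed cases, the value counts how many indexed literature references report it.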
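Wherever Hepatotoxicity (steatosis) is given: steatosis confirmed by histopathology, value is the count of indexed references.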

As for `FC(F)OC(Cl)C(F)(F)F` (centres undefined) [ISOFLURANE], the “Hepatotoxicity (moderate)” value in [1] is 13.3%; in [7] it was 5. The “Hepatotoxicity (acute)” value was 0% in data set [2] and 25 in [8]. The “Hepatotoxicity (successful reintroduction)” value in [3] is recorded as “yes”. Also, the “Hepatotoxicity (comment)” value in [4] is listed as “AC_ANTI-MFR/-TFA I/ALCOOL”. For the same compound, in data set [5], the “Hepatotoxicity (time to onset)” value is given as below 1 day - 3 weeks. In addition, the “Hepatotoxicity (mechanism)” value in [6] is “Allergic, Reactive metabolite”. In data set [9], the “Hepatotoxicity (cytolytic)” value is 20. In addition, the “Hepatotoxicity (choleostasis)” value in data set [10] worked out at 1. The “Hepatotoxicity (severe hepatitis)” value in [11] came out at 11. In addition, the “Hepatotoxicity (chronic liver disease)” value in data set [12] was 0. For the same compound, the “Hepatotoxicity (cirrhosis)” value in data set [13] turned out to be 0. In addition, the “Hepatotoxicity (granulomatous hepatitis)” value in data set [14] came to 0. In addition, the “Hepatotoxicity (association with vascular disease)” value in data set [15] worked out at 0. Moreover, the “Hepatotoxicity (steatosis)” value in data set [16] is 2. The “Hepatotoxicity (malignant tumour)” value in data set [17] was 0. Moreover, the “Hepatotoxicity (benign tumour)” value in [18] turned out to be 0. The “Hepatotoxicity (animal toxicity known)” value in data set [19] is reported as “yes”.
For the compound `COC(F)(F)C(Cl)Cl` [METHOXYFLURANE], the entries for the “Hepatotoxicity (moderate)” value in [1] and in data set [7] were 0% and 8, respectively. Besides, the “Hepatotoxicity (acute)” value in [2] was 0%; in data set [8] it was 32. Moreover, in data set [3], the “Hepatotoxicity (successful reintroduction)” value is listed as “yes”. In data set [4], the “Hepatotoxicity (comment)” value was “RC/HALOTHANE”. For the same compound, the “Hepatotoxicity (time to onset)” value in [5] amounted to 1 day - 20 days. Also, the “Hepatotoxicity (mechanism)” value in [6] was “Allergic, Reactive metabolite”. Further, the “Hepatotoxicity (cytolytic)” value in data set [9] was determined as 27. Besides, the “Hepatotoxicity (choleostasis)” value in data set [10] is 0. In addition, the “Hepatotoxicity (severe hepatitis)” value in data set [11] is 19. The “Hepatotoxicity (chronic liver disease)” value in [12] amounted to 0. In addition, the “Hepatotoxicity (cirrhosis)” value in data set [13] is reported as 0. The “Hepatotoxicity (granulomatous hepatitis)” value in data set [14] is given as 0. The “Hepatotoxicity (association with vascular disease)” value in data set [15] stood at 0. In addition, the “Hepatotoxicity (steatosis)” value in data set [16] was 3. Also, the “Hepatotoxicity (malignant tumour)” value in data set [17] was found to be 0. In addition, in [18], the “Hepatotoxicity (benign tumour)” value is recorded as 0. Further, the “Hepatotoxicity (animal toxicity known)” value in data set [19] is “yes”.
Turning to `CN(C)CCCN1c2ccccc2Sc2ccc(Cl)cc21` [CHLORPROMAZINE], the “Hepatotoxicity (moderate)” value was 42% in data set [1] (Liver) and 9 in [7]. The “Hepatotoxicity (acute)” value was 5.3% in [2] (Liver) and 58 in data set [8]. Besides, the “Hepatotoxicity (successful reintroduction)” value in [3] is given as “yes”. The “Hepatotoxicity (comment)” value in data set [4] is reported as “RC/PROMAZINE/THIORIDAZINE AC_ANTI-N #CBP DUCTOPENIE”. Besides, in data set [5], the “Hepatotoxicity (time to onset)” value was determined as 1 day - 28 years. Further, the “Hepatotoxicity (mechanism)” value in data set [6] is on record as “Allergic, Toxic Metabolite”. In addition, the “Hepatotoxicity (cytolytic)” value in data set [9] stood at 13. Also, the “Hepatotoxicity (choleostasis)” value in data set [10] worked out at 50. Further, in data set [11] (Liver), the “Hepatotoxicity (severe hepatitis)” value came out at 4. Moreover, the “Hepatotoxicity (chronic liver disease)” value in [12] is recorded as 6. The “Hepatotoxicity (cirrhosis)” value in data set [13] worked out at 8. Further, the “Hepatotoxicity (granulomatous hepatitis)” value in data set [14] stood at 2. Also, in data set [15], the “Hepatotoxicity (association with vascular disease)” value is reported as 0. In addition, the “Hepatotoxicity (steatosis)” value in [16] is given as 1. Besides, the “Hepatotoxicity (malignant tumour)” value in data set [17] was 0. Also, in data set [18], the “Hepatotoxicity (benign tumour)” value was 0. In data set [19], the “Hepatotoxicity (animal toxicity known)” value is on record as “yes”.
In the case of `CC(=O)N1CCN(c2ccc(OCC3COC(Cn4ccnc4)(c4ccc(Cl)cc4Cl)O3)cc2)CC1` (centres undefined) [KETOCONAZOLE], the “Hepatotoxicity (moderate)” value came to 50% in [1] and 62 in data set [7]. For the same compound, the “Hepatotoxicity (acute)” value in data set [2] is 2.9%; in data set [8], 45. Further, the “Hepatotoxicity (successful reintroduction)” value in data set [3] was “yes”. Further, the “Hepatotoxicity (comment)” value in data set [4] was “CHOLESTASE_PROLONGEE”. For the same compound, the “Hepatotoxicity (time to onset)” value in data set [5] came to 3 days - 5 years. For the same compound, in data set [6], the “Hepatotoxicity (mechanism)” value was “Toxic, Dose-dependant”. In addition, the “Hepatotoxicity (cytolytic)” value in [9] is recorded as 37. Also, in data set [10], the “Hepatotoxicity (choleostasis)” value came out at 19. Besides, the “Hepatotoxicity (severe hepatitis)” value in data set [11] is listed as 14. Further, the “Hepatotoxicity (chronic liver disease)” value in [12] is given as 3. The “Hepatotoxicity (cirrhosis)” value in data set [13] was found to be 0. For the same compound, the “Hepatotoxicity (granulomatous hepatitis)” value in data set [14] stood at 1. In addition, the “Hepatotoxicity (association with vascular disease)” value in data set [15] came out at 0. Further, the “Hepatotoxicity (steatosis)” value in data set [16] came out at 2. The “Hepatotoxicity (malignant tumour)” value in data set [17] turned out to be 0. Besides, the “Hepatotoxicity (benign tumour)” value in [18] came out at 0. Besides, the “Hepatotoxicity (animal toxicity known)” value in [19] is recorded as “yes”.
Turning to `C[C@H](CS)C(=O)N1CCC[C@H]1C(=O)O` [CAPTOPRIL], the “Hepatotoxicity (moderate)” value came out at 4% in data set [1] (Liver) and 5 in data set [7]. Further, the “Hepatotoxicity (acute)” value in data set [2] (Liver) is reported as 0.1%; in data set [8], 26. Besides, the “Hepatotoxicity (successful reintroduction)” value in [3] was “yes”. Moreover, the “Hepatotoxicity (comment)” value in data set [4] is reported as “PSEUDOCHOLANGITE RC/ENALAPRIL/LISINOPRIL”. In addition, the “Hepatotoxicity (time to onset)” value in data set [5] was 9 days - 26 months. The “Hepatotoxicity (mechanism)” value in [6] is given as “Allergic”. For the same compound, the “Hepatotoxicity (cytolytic)” value in [9] turned out to be 7. Moreover, in data set [10], the “Hepatotoxicity (choleostasis)” value is recorded as 16. Also, the “Hepatotoxicity (severe hepatitis)” value in data set [11] (Liver) is given as 1. In addition, the “Hepatotoxicity (chronic liver disease)” value in data set [12] is on record as 1. Moreover, the “Hepatotoxicity (cirrhosis)” value in [13] stood at 1. Moreover, the “Hepatotoxicity (granulomatous hepatitis)” value in data set [14] amounted to 0. In [15], the “Hepatotoxicity (association with vascular disease)” value was determined as 0. Further, in data set [16], the “Hepatotoxicity (steatosis)” value amounted to 1. Also, the “Hepatotoxicity (malignant tumour)” value in data set [17] is 0. Further, the “Hepatotoxicity (benign tumour)” value in data set [18] was found to be 0. Further, in data set [19], the “Hepatotoxicity (animal toxicity known)” value was “yes”.
For the compound `CN(C)CCC=C1c2ccccc2CCc2ccccc21` [AMITRIPTYLINE], the “Hepatotoxicity (moderate)” value in data set [1] is 26%; in [7] it was 11. Also, the results for the “Hepatotoxicity (acute)” value in data set [2] and in [8] were 3% and 18, respectively. The “Hepatotoxicity (successful reintroduction)” value in data set [3] is “yes”. Moreover, in data set [4], the “Hepatotoxicity (comment)” value was “CHOLESTASE_PROLONGEE CHOLANGITE”. For the same compound, the “Hepatotoxicity (time to onset)” value in data set [5] is reported as 1 week - 10 months. The “Hepatotoxicity (mechanism)” value in data set [6] is “Allergic”. Also, the “Hepatotoxicity (cytolytic)” value in data set [9] amounted to 9. Besides, the “Hepatotoxicity (choleostasis)” value in data set [10] is on record as 12. The “Hepatotoxicity (severe hepatitis)” value in data set [11] was determined as 6. In addition, in [12], the “Hepatotoxicity (chronic liver disease)” value was 0. The “Hepatotoxicity (cirrhosis)” value in data set [13] was found to be 0. In data set [14], the “Hepatotoxicity (granulomatous hepatitis)” value came out at 0. In addition, the “Hepatotoxicity (association with vascular disease)” value in [15] was determined as 0. In addition, the “Hepatotoxicity (steatosis)” value in [16] worked out at 0. For the same compound, the “Hepatotoxicity (malignant tumour)” value in data set [17] was 0. For the same compound, the “Hepatotoxicity (benign tumour)” value in data set [18] is recorded as 0. The “Hepatotoxicity (animal toxicity known)” value in data set [19] is given as “yes”.
